Among the data in ChEMBL document CHEMBL1154875, “Pharmacophoric model building for antitubercular activity of the individual Schiff bases of small combinatorial library” (2010) are inhibition values, retold here.

For this assay, the system named is Mycobacterium tuberculosis. Kind of assay: Antimicrobial activity against Mycobacterium tuberculosis H37Rv ATCC 27294 at 6.25 ug/ml after 24 hrs by Microplate Almar blue assay. Format: functional. To be noted: H37Rv ATCC 27294, 24 h.
`O=C(N/N=C/c1ccc([N+](=O)[O-])cc1)c1ccco1` yielded an inhibition at 6.25 µg/mL of 35%.

`O=C(NN/C=C/c1ccccc1)c1ccncc1` yielded an inhibition at 6.25 µg/mL of 54%.

In turn, `O=C(N/N=C/c1ccccc1)c1ccncc1` [N'-BENZYLIDENE ISONICOTINOHYDRAZIDE] had an inhibition at 6.25 µg/mL of 51%.

In turn, `C/C(=N/NC(=O)c1ccco1)c1ccc([N+](=O)[O-])cc1` had an inhibition at 6.25 µg/mL of 62%.

`O=C(NN/C=C/c1ccccc1)c1cc(/C=C\c2ccco2)on1` had an inhibition at 6.25 µg/mL of 80%.

Turning to `O=C1Nc2ccccc2/C1=N\NC(=O)c1cc(/C=C\c2ccco2)on1`, 6.25 µg/mL produced 39% inhibition.

`C/C(=N/NC(=O)c1cc(/C=C\c2ccco2)on1)c1ccc([N+](=O)[O-])cc1`: the inhibition at 6.25 µg/mL is 66%.

In turn, `O=C1Nc2ccccc2/C1=N\NC(=O)c1cccnc1` registered an inhibition at 6.25 µg/mL of 57%.

`O=C(N/N=C/c1ccc([N+](=O)[O-])cc1)c1cc(/C=C\c2ccco2)on1` registered an inhibition at 6.25 µg/mL of 37%.

Compound `CC(=O)OC(O/C(C)=N/NC(=O)c1ccncc1)c1ccc([N+](=O)[O-])o1` (centres undefined) yielded an inhibition at 6.25 µg/mL of 84%.

For `CC(=O)OC(O/C(C)=N/NC(=O)c1ccco1)c1ccc([N+](=O)[O-])o1` (centres undefined), the inhibition at 6.25 µg/mL is 99%.

`O=C1Nc2ccccc2/C1=N\NC(=O)c1ccco1` returned an inhibition at 6.25 µg/mL of 41%.

With `CC(=O)OC(O/C(C)=N/NC(=O)c1cc(/C=C\c2ccco2)on1)c1ccc([N+](=O)[O-])o1` (centres undefined), the inhibition at 6.25 µg/mL stood at 59%.

For `C/C(=N\NC(=O)c1ccncc1)c1ccc([N+](=O)[O-])cc1`, the inhibition at 6.25 µg/mL was found to be 99%.

By inhibition is commonly meant the change of the read-out against control, counted positive when it falls.
